Key:
[1] = Storage stability of analytes in rat plasma (method validation); conditions: for Auto-Sampler Stability at 2–8 °C (72 h), Bias / Auto-Sampler Stability at 2–8 °C (72 h), Measured Concentration: processed rat plasma; for Auto-Sampler Stability at 2–8 °C (72 h), Bias / Short-Term Stability at Room Temperature (4 h), Bias / Freeze and Thaw Stability at −80 °C/Room Temperature (3 Cycles), Bias / Long-Term Stability at −80 °C (70 days), Bias: n = 6; for Auto-Sampler Stability at 2–8 °C (72 h), Measured Concentration / Freeze and Thaw Stability at −80 °C/Room Temperature (3 Cycles), Measured Concentration / Long-Term Stability at −80 °C (70 days), Measured Concentration / Short-Term Stability at Room Temperature (4 h), Measured Concentration: n = 6, mean ± SD; for Short-Term Stability at Room Temperature (4 h), Bias / Freeze and Thaw Stability at −80 °C/Room Temperature (3 Cycles), Bias / Long-Term Stability at −80 °C (70 days), Bias / Freeze and Thaw Stability at −80 °C/Room Temperature (3 Cycles), Measured Concentration / Long-Term Stability at −80 °C (70 days), Measured Concentration / Short-Term Stability at Room Temperature (4 h), Measured Concentration: rat plasma; for Short-Term Stability at Room Temperature (4 h), Bias: bias from nominal
Experimental: (§5) By investigating low- and high-concentration stability QCs in six replicates at different storage conditions, autosampler, short-term (bench-top), freeze and thaw, and long-term stability evaluations were conducted.

[2] = Multiple-dose pharmacokinetic study of legubicin, weekly i.v. for 4 weeks; conditions: free metabolite in plasma, weekly i.v. legubicin 5 mg/kg; for Tmax: median [min, max]; for AUClast / Cmax: n = 3
Experimental: (§1) The mixture was vortexed for 3 min, and then centrifuged at 22,000× g at 4 °C for 10 min. A final analysis was conducted by injecting 5 µL supernatant into a UHPLC-MS/MS system. Mouse plasma samples were treated in the same way as the rat plasma samples, except for protein precipitation, with 200 µL of 5 pmol/mL IS working solution and injection of 2 µL of supernatant for analysis.
(§2) (1) For the hydrolysis process, an aliquot of 25 µL of rat/mouse plasma was transferred into an Eppendorf tube, and then 50 µL of enzyme digestion buffer and 25 µL of legumain enzyme were placed into the tube. The mixture was vortexed for 1 min, and then incubated in a water bath for 24 h at 37 °C for enzymatic hydrolysis. (2) For the protein precipitation process, 1000 µL of IS working solution (5 pmol/mL and 50 pmol/mL for rat and mouse plasmas, respectively) was added to the enzymatic-hydrolysis solution. Then, the sample was vortexed for 3 min and centrifuged at 22,000× g for 10 min at 4 °C. Analyses were performed on the 3 µL aliquot of the solution used in the UHPLC-MS/MS system.
(§3) Twenty-four rats, inclusive of both sexes, were randomly distributed into four groups. Groups 1, 2, and 3 were single-dose groups, among which the subjects received legubicin via tail intravenous injection (a dose of 1.5, 5, or 15 mg/kg; i.e., 1.36, 4.52, or 13.6 µmol/kg). The fourth group was utilized for a multi-dose study at 5 mg/kg (once-weekly for 4 consecutive weeks). Blood samples of approximately 150 µL were taken from the jugular vein at 0 h (pre-dosing) and at 0.167 h (10 min), 0.5 h, 1 h, 2 h, 4 h, 8 h, 24 h, 48 h, and 72 h post-dosing in the single-dose groups. Samples were also obtained on days 1 and 22 for the multiple-dose group in the same way as for the single-dose groups. However, on days 8 and 15, samples were taken only before and 10 min after administration. The K2EDTA quantities containing blood samples were centrifuged (4 °C, 4000 rpm, 10 min) to collect plasma samples, which were separated into EP tubes and kept at −80 °C until further assay.
(§4) The analysis software (Version 1.5.2, AB Sciex, Vaughan, ON, Canada) was applied to data acquisition and quantification. Pharmacokinetic parameters were calculated with WinNonlin Phoenix (v6.4, Pharsight, Mountain View, CA, USA) with the noncompartmental method, and were presented as mean ± SD (%CV). The “Best fit” strategy in the WinNonlin Phoenix was used for the calculation of elimination half-life and the selection of the elimination phase. Graphs were plotted by GraphPad Software (GraphPad Prism 8.0.2; GraphPad Software, Inc., La Jolla, CA, USA).

[3] = Single-dose pharmacokinetic study of legubicin, i.v.; conditions: free metabolite in plasma; for AUClast / Cmax: n = 3, mean ± SD; for Tmax: n = 3, median [min, max]
Experimental: The pharmacokinetic parameters are outlined in Table 5. […] A power-function model was used to fit the relationship between exposure level (Cmax, AUClast, and AUCINF_obs) parameters and dose, and the power exponent (parameter β) and its 90% confidence interval were obtained (see Table S5).
as §1, §2, §3, §4

[4] = Storage stability of analytes in mouse tumor homogenate (method validation)
Experimental: (§6) Tumor-bearing mouse tumor/individual tissue samples were homogenized by adding PBS at a ratio of 1:5 (e.g., 1 g of tumor sample to 5 mL of PBS) to make a tumor/tissue homogenate. A quantity of 60 µL of homogenate was taken as a tumor/tissue sample and processed in the same manner as the mouse plasma sample, with the exception of 240 µL of IS working solution used for protein precipitation.
as §5

[5] = Storage stability of analytes in mouse liver homogenate (method validation)
Experimental: as §6, §5

[6] = Storage stability of analytes in mouse plasma (method validation); conditions: for Freeze and thaw stability at -80 °C/ room temperature, Bias / Freeze and thaw stability at -80 °C/ room temperature, Measured concentration / Long term stability at -80 °C (30 days), Bias / Short term stability at room temperature (6 h), Bias / Long term stability at -80 °C (30 days), Measured concentration / Short term stability at room temperature (6 h), Measured concentration: mouse plasma; for Freeze and thaw stability at -80 °C/ room temperature, Bias / Freeze and thaw stability at -80 °C/ room temperature, Measured concentration: 1 cycle; for Freeze and thaw stability at -80 °C/ room temperature, Bias / Long term stability at -80 °C (30 days), Bias / Short term stability at room temperature (6 h), Bias / Auto-sampler stability at 2-8 °C, Bias: n = 6; for Freeze and thaw stability at -80 °C/ room temperature, Measured concentration / Long term stability at -80 °C (30 days), Measured concentration / Short term stability at room temperature (6 h), Measured concentration / Auto-sampler stability at 2-8 °C, Measured concentration: n = 6, mean ± SD; for Auto-sampler stability at 2-8 °C, Bias / Auto-sampler stability at 2-8 °C, Measured concentration: processed mouse plasma, 12 h
Experimental: as §5

[7] = high QC (Leu-DOX 4000, DOX 1200 pmol/mL, conjugate 80 nmol/mL)
[8] = high QC (nominal Leu-DOX 4000, DOX 1200 pmol/mL)
[9] = low QC (Leu-DOX 10, DOX 3 pmol/mL, conjugate 0.2 nmol/mL)
[10] = low QC (nominal Leu-DOX 10, DOX 3 pmol/mL)
[11] = female SD rats, multiple dose (day 22)
[12] = female SD rats, single dose (day 1)
[13] = male SD rats, multiple dose (day 22)
[14] = male SD rats, single dose (day 1)
[15] = female SD rats, single i.v. legubicin 5 mg/kg
[16] = female SD rats, single i.v. legubicin 15 mg/kg
[17] = male SD rats, single i.v. legubicin 5 mg/kg
[18] = male SD rats, single i.v. legubicin 15 mg/kg
[19] = high QC (Leu-DOX 2400, DOX 800 pmol/mL)
[20] = high QC (nominal Leu-DOX 2400, DOX 800 pmol/mL)
[21] = low QC (Leu-DOX 9, DOX 3 pmol/mL)
[22] = low QC (nominal Leu-DOX 9, DOX 3 pmol/mL)
[23] = high QC (Leu-DOX 2400, DOX 800 pmol/mL, conjugate 80 nmol/mL)
[24] = low QC (Leu-DOX 9, DOX 3 pmol/mL, conjugate 0.2 nmol/mL)

## COc1cccc2c1C(=O)c1c(O)c3c(c(O)c1C2=O)C[C@@](O)(C(=O)CO)C[C@@H]3O[C@H]1C[C@H](N)[C@H](O)[C@H](C)O1 [DOX, Doxorubicin]
[1]; [7]
  Auto-Sampler Stability at 2–8 °C (72 h), Bias: 1.0%
  Short-Term Stability at Room Temperature (4 h), Bias: 3.2%
  Freeze and Thaw Stability at −80 °C/Room Temperature (3 Cycles), Bias: 1.8%
  Long-Term Stability at −80 °C (70 days), Bias: −0.8%
[1]; [8]
  Auto-Sampler Stability at 2–8 °C (72 h), Measured Concentration: 1211.67 ± 104.58 nM
  Freeze and Thaw Stability at −80 °C/Room Temperature (3 Cycles), Measured Concentration: 1221.67 ± 97.45 pmol/mL
  Long-Term Stability at −80 °C (70 days), Measured Concentration: 1190.00 ± 40.50 pmol/mL
  Short-Term Stability at Room Temperature (4 h), Measured Concentration: 1238.33 ± 100.48 pmol/mL
[1]; [9]
  Auto-Sampler Stability at 2–8 °C (72 h), Bias: 4.4%
  Short-Term Stability at Room Temperature (4 h), Bias: 1.2%
  Freeze and Thaw Stability at −80 °C/Room Temperature (3 Cycles), Bias: 0.4%
  Long-Term Stability at −80 °C (70 days), Bias: −0.6%
[1]; [10]
  Auto-Sampler Stability at 2–8 °C (72 h), Measured Concentration: 3.13 ± 0.25 nM
  Freeze and Thaw Stability at −80 °C/Room Temperature (3 Cycles), Measured Concentration: 3.01 ± 0.15 pmol/mL
  Long-Term Stability at −80 °C (70 days), Measured Concentration: 2.98 ± 0.29 pmol/mL
[1]; low QC (nominal Leu-DOX 10, DOX 3 pmol/mL), UHPLC-MS/MS
  Short-Term Stability at Room Temperature (4 h), Measured Concentration: 3.04 ± 0.18 pmol/mL
[2]; [11]
  Tmax: 0.167 [0.167, 0.167] h
  AUClast: 0.174 ± 0.0367 µM·h
  Cmax: 4.70 ± 0.534 nM
[2]; [12]
  Tmax: 0.167 [0.167, 0.167] h
  AUClast: 0.0945 ± 0.0447 µM·h
  Cmax: 3.10 ± 0.367 nM
[2]; [13]
  Tmax: 0.167 [0.167, 0.167] h
  AUClast: 0.207 ± 0.0112 µM·h
  Cmax: 8.58 ± 0.616 nM
[2]; [14]
  Tmax: 0.167 [0.167, 0.167] h
  AUClast: 0.123 ± 0.0441 µM·h
  Cmax: 6.01 ± 0.430 nM
[3]; [15]
  AUClast: 0.1 ± 0.00538 µM·h
  Cmax: 3.11 ± 0.615 nM
  Tmax: 0.167 [0.167, 0.167] h
[3]; [16]
  AUClast: 0.486 ± 0.0464 µM·h
  Cmax: 20.5 ± 5.06 nM
  Tmax: 0.167 [0.167, 0.167] h
[3]; [17]
  AUClast: 0.173 ± 0.0243 µM·h
  Cmax: 6.65 ± 1.30 nM
  Tmax: 0.167 [0.167, 0.167] h
[3]; [18]
  AUClast: 0.789 ± 0.0997 µM·h
  Cmax: 44.2 ± 4.65 nM
  Tmax: 0.167 [0.167, 0.167] h
[4]; mouse tumor homogenate, 3 cycles, low QC (Leu-DOX 27, DOX 9 pmol/mL), n = 6
  Freeze and thaw stability at -80 °C/ room temperature, Bias: -1.2%
[4]; mouse tumor homogenate, 3 cycles, low QC (nominal Leu-DOX 27, DOX 9 pmol/mL), n = 6, mean ± SD
  Freeze and thaw stability at -80 °C/ room temperature, Measured concentration: 8.89 ± 0.66 pmol/mL
[4]; mouse tumor homogenate, low QC (Leu-DOX 27, DOX 9 pmol/mL), n = 6
  Short term stability at room temperature (6 h), Bias: 5.7%
[4]; mouse tumor homogenate, low QC (nominal Leu-DOX 27, DOX 9 pmol/mL), n = 6, mean ± SD
  Short term stability at room temperature (6 h), Measured concentration: 9.51 ± 0.67 pmol/mL
[4]; processed mouse tumor homogenate, 48h, low QC (Leu-DOX 27, DOX 9 pmol/mL), n = 6
  Auto-sampler stability at 2-8 °C, Bias: -5.1%
[4]; processed mouse tumor homogenate, 48h, low QC (nominal Leu-DOX 27, DOX 9 pmol/mL), n = 6, mean ± SD
  Auto-sampler stability at 2-8 °C, Measured concentration: 8.54 ± 0.89 pmol/mL
[5]; mouse liver homogenate, 3 cycles, low QC (nominal Leu-DOX 27, DOX 10 pmol/mL), n = 6, mean ± SD
  Freeze and thaw stability at -80 °C/ room temperature, Measured concentration: 11.04 ± 0.68 pmol/mL
[5]; mouse liver homogenate, low QC (Leu-DOX 27, DOX 10 pmol/mL), n = 6
  Short term stability at room temperature (6 h), Bias: 0.8%
[5]; mouse liver homogenate, low QC (nominal Leu-DOX 27, DOX 10 pmol/mL), n = 6, mean ± SD
  Short term stability at room temperature (6 h), Measured concentration: 10.08 ± 0.52 pmol/mL
[5]; processed mouse liver homogenate, 48h, low QC (nominal Leu-DOX 27, DOX 10 pmol/mL), n = 6, mean ± SD
  Auto-sampler stability at 2-8 °C, Measured concentration: 11.06 ± 0.81 pmol/mL
[6]; [19]
  Freeze and thaw stability at -80 °C/ room temperature, Bias: -7.0%
  Auto-sampler stability at 2-8 °C, Bias: -8.2%
[6]; [20]
  Freeze and thaw stability at -80 °C/ room temperature, Measured concentration: 744.33 ± 11.66 pmol/mL
  Long term stability at -80 °C (30 days), Measured concentration: 838.33 ± 13.81 pmol/mL
  Short term stability at room temperature (6 h), Measured concentration: 728.83 ± 15.41 pmol/mL
  Auto-sampler stability at 2-8 °C, Measured concentration: 734.00 ± 10.90 pmol/mL
[6]; [21]
  Freeze and thaw stability at -80 °C/ room temperature, Bias: -8.6%
  Auto-sampler stability at 2-8 °C, Bias: -7.9%
[6]; [22]
  Freeze and thaw stability at -80 °C/ room temperature, Measured concentration: 2.74 ± 0.07 pmol/mL
  Long term stability at -80 °C (30 days), Measured concentration: 2.97 ± 0.23 pmol/mL
  Short term stability at room temperature (6 h), Measured concentration: 2.72 ± 0.17 pmol/mL
  Auto-sampler stability at 2-8 °C, Measured concentration: 2.76 ± 0.16 pmol/mL
[6]; [23]
  Long term stability at -80 °C (30 days), Bias: 4.8%
  Short term stability at room temperature (6 h), Bias: -9.3%
[6]; [24]
  Long term stability at -80 °C (30 days), Bias: -1.1%
  Short term stability at room temperature (6 h), Bias: -9.4%

From PMC10892419, “UHPLC-MS/MS Assay for Quantification of Legubicin, a Novel Doxorubicin-Based Legumain-Activated Prodrug, and Its Application to Pharmacokinetic and Tissue Distribution Studies” (Molecules, 2024)
